# Entries after “also recorded” stand apart in the source; their conditions may differ. Like-named read-outs stand apart in the source and are kept apart here.
# How the values were obtained:
# rat intestinal sucrase [1] = target: T1, rat intestinal sucrase (Rattus norvegicus, UniProt P23739); test: In vitro α-glucosidase inhibition assay, rat intestinal sucrase; format: biochemical
# T1 construct: rat small intestinal brush border membrane vesicles were first prepared; from tissue; host or cells: rat small intestine, brush border membrane vesicles
# T1 sequence (P23739 whole entry): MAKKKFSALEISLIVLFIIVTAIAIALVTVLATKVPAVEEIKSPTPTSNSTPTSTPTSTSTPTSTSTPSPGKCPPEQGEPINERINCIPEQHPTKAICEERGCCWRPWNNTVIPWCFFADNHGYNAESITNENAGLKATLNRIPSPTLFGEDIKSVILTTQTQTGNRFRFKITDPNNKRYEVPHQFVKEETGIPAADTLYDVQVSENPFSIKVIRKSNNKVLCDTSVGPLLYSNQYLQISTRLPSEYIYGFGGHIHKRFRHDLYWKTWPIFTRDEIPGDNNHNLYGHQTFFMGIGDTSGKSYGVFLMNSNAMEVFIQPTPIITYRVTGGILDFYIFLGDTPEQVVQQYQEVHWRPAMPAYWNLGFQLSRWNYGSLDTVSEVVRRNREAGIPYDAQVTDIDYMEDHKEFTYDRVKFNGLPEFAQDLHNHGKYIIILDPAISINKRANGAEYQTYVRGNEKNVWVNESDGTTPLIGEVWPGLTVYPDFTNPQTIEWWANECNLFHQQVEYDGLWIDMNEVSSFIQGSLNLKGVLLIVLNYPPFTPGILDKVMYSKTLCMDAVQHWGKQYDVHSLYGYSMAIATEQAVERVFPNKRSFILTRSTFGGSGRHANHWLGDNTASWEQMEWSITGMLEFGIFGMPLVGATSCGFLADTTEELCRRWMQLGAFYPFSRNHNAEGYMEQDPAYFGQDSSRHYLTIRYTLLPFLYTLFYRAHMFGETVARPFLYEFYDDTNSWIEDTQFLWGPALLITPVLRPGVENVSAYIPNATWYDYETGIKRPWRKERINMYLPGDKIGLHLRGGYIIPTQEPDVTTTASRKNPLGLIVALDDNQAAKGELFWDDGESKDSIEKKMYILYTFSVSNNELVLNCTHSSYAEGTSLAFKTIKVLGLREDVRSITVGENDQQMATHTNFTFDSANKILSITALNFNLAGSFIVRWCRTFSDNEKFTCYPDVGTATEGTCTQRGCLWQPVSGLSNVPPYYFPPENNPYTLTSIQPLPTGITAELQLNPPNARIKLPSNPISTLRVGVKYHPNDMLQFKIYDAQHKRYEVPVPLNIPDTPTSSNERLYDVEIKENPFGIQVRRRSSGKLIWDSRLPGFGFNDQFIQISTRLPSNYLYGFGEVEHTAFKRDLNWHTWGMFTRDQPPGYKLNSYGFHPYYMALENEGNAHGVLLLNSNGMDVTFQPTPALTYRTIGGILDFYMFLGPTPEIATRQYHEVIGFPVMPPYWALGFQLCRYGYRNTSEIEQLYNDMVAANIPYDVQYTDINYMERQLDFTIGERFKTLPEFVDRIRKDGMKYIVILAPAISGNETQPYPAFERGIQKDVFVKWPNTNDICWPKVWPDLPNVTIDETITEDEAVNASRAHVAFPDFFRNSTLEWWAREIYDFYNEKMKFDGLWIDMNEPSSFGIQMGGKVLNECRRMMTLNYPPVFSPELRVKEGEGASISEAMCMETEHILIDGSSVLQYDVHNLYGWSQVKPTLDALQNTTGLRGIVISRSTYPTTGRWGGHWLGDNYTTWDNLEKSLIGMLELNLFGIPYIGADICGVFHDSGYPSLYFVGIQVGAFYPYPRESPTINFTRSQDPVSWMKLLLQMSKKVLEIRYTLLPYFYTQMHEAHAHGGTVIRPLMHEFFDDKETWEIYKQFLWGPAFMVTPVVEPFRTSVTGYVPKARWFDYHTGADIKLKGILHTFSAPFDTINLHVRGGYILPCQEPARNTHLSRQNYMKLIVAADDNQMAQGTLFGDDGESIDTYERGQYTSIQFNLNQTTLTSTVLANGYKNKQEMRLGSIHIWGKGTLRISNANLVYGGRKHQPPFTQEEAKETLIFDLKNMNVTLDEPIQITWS
# Experimental: (§1) The testing method previously described was modified and used. Thus, rat small intestinal brush border membrane vesicles were first prepared, and its suspension in 0.1 M maleate buffer (pH = 6.0) was used as small intestinal α-glucosidases of maltase and sucrase. A test compound was dissolved in dimethylsulfoxide (DMSO), and the resulting solution was diluted with 0.1 M maleate buffer to prepare the test compound solution (concentration of DMSO: 10%). The substrate solution in maleate buffer ([…], 50 μL), a test compound solution (25 μL), and the enzyme solution (25 μL) were mixed and incubated at 37 °C for 30 min. After incubation, the solution was immediately heated by boiling water for 2 min to stop the reaction, and the solution was mixed with water (150 μL). Glucose concentration was determined by the glucose-oxidase method. […] The IC50 value was determined graphically by a plot of percent inhibition versus log of the test compound.
# rat intestinal sucrase [2] = target: T1, rat intestinal sucrase; details: read-out: IC50 against sucrase (converted), cited from earlier work
# rat intestinal maltase [3] = details: read-out: IC50 against maltase (converted), cited from earlier work
# rat intestinal maltase [4] = test: In vitro α-glucosidase inhibition assay, rat intestinal maltase; format: biochemical; details: for IC50: rat small intestinal brush border membrane vesicles, maltose substrate, mean ± SD (n = 3), read-out: IC50 against maltase
# Experimental: as §1
# rat intestinal sucrase [5] = target: T1, rat intestinal sucrase; test: Inhibition-kinetic study (Lineweaver–Burk), sucrase; format: biochemical; details: for type of inhibition, sucrase: Lineweaver–Burk plots
# Experimental: (§2) In order to explore the inhibitory mechanism of the α-glucosidase by this family of compounds, enzyme kinetic assays were conducted on 20a, 20c, and 10, followed by a detailed kinetic analysis using the Lineweaver–Burk plots. (Figure 3) The small intestinal brush border membrane vesicles were incubated with varying concentrations of maltose (3.27 mg/mL) for maltase assays and sucrose (52.37 mg/mL) for sucrase assays.
# (§3) For kinetic analyses of maltase and sucrase by compounds (20a, 20c, and 10), the enzyme and test samples (1.0 mg/mL for maltase and 0.2 mg/mL for sucrase) were incubated with increasing concentrations of maltose (2.5, 5, 10, 20, 50, 100 μM) and sucrose (5, 10, 20, 50, 100, 1000 μM) at 37 °C for 30 min. The tube was immediately immersed in boiling water for 2 min to stop the reaction, then cooled with water. The glucose concentration was determined by the glucose-oxidase method. […] The Lineweaver–Burk equation follows as: 1/V=Km/Vmax×[…]
# (§4) Ki values for each inhibitor were determined by the equation: Ki=[I]×Km/[[…]−Km]
# rat intestinal maltase [6] = test: Inhibition-kinetic study (Lineweaver–Burk), maltase; format: biochemical; details: for type of inhibition, maltase: Lineweaver–Burk plots; for Ki Maltase (Km = 3.0 mM): small intestinal α-glucosidase, Lineweaver–Burk
# Experimental: as §2, §3, §4
# Primary Hepatocyte = test: Cytotoxicity against Primary Hepatocyte; format: cell-based
# Experimental: (§5) The cytotoxicity of selected sulfonium salts (20a, 20c, and 10) was then evaluated via the 3-[4,5-dimethylthiazol-2-yl]-2,5-diphenyl-tetrazolium bromide (MTT) assay against different cell lines.
# (§6) Compounds HELF LO2 Primary Hepatocyte
# (§7) (1 picture or pasted object on this page, not shown here)
# [7] = test system: HELF, a human embryonic lung fibroblast cell line; test: MTT cytotoxicity assay on HELF cells; format: cell-based; details: for IC50: Homo sapiens, HELF, read-out: IC50 against normal cell line HELF; for cytotoxicity (MTT assay): different cell lines
# Experimental: as §5
# Briefly, the HELF-adherent cells were cultured in a 96-well plate overnight in a CO2 environment at 37 °C. Supernatant was removed, and 100 μL serially diluted compounds with complete medium DMEM supplemented with 10% (v/v) fetal bovine serum, penicillin (100 units/mL), and streptomycin (100 μg/mL) were added to each well. After the incubation, the culture medium was aspirated carefully, and 50 μL of MTT solution (2mg/mL PBS) was added to each well and further incubated for 4h. After this, MTT solution was aspirated, and cells were PBS-washed once, and 100 μL of DMSO was added to dissolve the blue insoluble MTT formazan produced by the action of mitochondrial dehydrogenase. The plate was agitated at room temperature for 15 min and then read at 570 nm by using a microplate reader. The percentage of viable cells was calculated as the relative ratio of optical densities.
# LO2 = test: Cytotoxicity against normal cell line LO2; format: cell-based; details: Homo sapiens, L02
# Experimental: as §5, §6, §7
# maltose-loaded mice = test: Maltose loading test (hypoglycemic effect); format: in vivo, ICR mice; details: maltose loading 2.0 g/kg, 1.0 mpk
# Experimental: A maltose loading test on compounds 10, 20c, neoponkoranol, and positive control (voglibose) was conducted to further evaluate their in vivo hypoglycemic effects against maltase.
# The animal experimental protocols in this study were approved by the Experimental Animal Center of Shanghai Institute of Materia Medica (Shanghai, China). Male ICR (Institute of Cancer Research) mice (29−33 g) after an overnight fast were used for acute maltose and sucrose loading tests. […] A control group was loaded with distillation−distillation water. In the sucrose loading test, sucrose (2.5 g/kg of body weight) and the inhibitor miglitol were dissolved in distillation−distillation water and administered to the mice via a stomach tube. A control group was loaded with distillation−distillation water. Blood samples for glucose measurements were obtained from the tail vein at 0, 15, 30, 60, and 120 min after maltose and sucrose loading. The blood glucose levels were measured by a portable kit, StatStrip Xpress (Nova Biomedical Co., Ltd., Waltham, MA, USA). The AUC over was calculated by the trapezoidal method.
# sucrose-loaded mice = test: Sucrose loading test (hypoglycemic effect); format: in vivo, ICR mice; details: sucrose loading […] p.o.
# Experimental: Research has shown a strong association between the 2 h postprandial blood glucose level and the risk of cardiovascular events, diabetic microvascular complications such as retinopathy, and the progression of macrovascular diseases. […] Considering this underlying pathological process, α-glucosidase inhibitors, which efficiently regulate postprandial glucose fluctuations, hold significant therapeutic promise for alleviating diabetes-related complications. […] Subsequently, doses were reduced to 1.0 mg/kg.
# The animal experimental protocols in this study were approved by the Experimental Animal Center of Shanghai Institute of Materia Medica (Shanghai, China). Male ICR (Institute of Cancer Research) mice (29−33 g) after an overnight fast were used for acute maltose and sucrose loading tests. In the maltose loading test, maltose ([…] of body weight) and the inhibitors and voglibose were dissolved in distillation−distillation water and administered to the mice via a stomach tube. A control group was loaded with distillation−distillation water. In the sucrose loading test, sucrose (2.5 g/kg of body weight) and the inhibitor miglitol were dissolved in distillation−distillation water and administered to the mice via a stomach tube. A control group was loaded with distillation−distillation water. Blood samples for glucose measurements were obtained from the tail vein at 0, 15, 30, 60, and 120 min after maltose and sucrose loading. The blood glucose levels were measured by a portable kit, StatStrip Xpress (Nova Biomedical Co., Ltd., Waltham, MA, USA). The AUC over was calculated by the trapezoidal method.
# [8] = rat small intestinal brush border membrane vesicles, sucrose substrate, mean ± SD (n = 3), read-out: IC50 against sucrase
IC50 (rat intestinal sucrase [1]; [8]),SMILES,IC50 (rat intestinal maltase [4]),Ki (rat intestinal sucrase [5]),"type of inhibition, sucrase (rat intestinal sucrase [5])","type of inhibition, maltase (rat intestinal maltase [6])",Ki Maltase (Km = 3.0 mM) (rat intestinal maltase [6]),IC50 (rat intestinal sucrase [1]),IC50 (Primary Hepatocyte),IC50 [7],cytotoxicity (MTT assay) [7],IC50 (LO2),"Declined Rate of Blood Glucose Levels, 60 min (maltose-loaded mice; 1 mg/kg)",Declined Rate of AUC (maltose-loaded mice; 1 mg/kg),"Declined Rate of Blood Glucose Levels, 15 min (sucrose-loaded mice; 1.0 mpk)","Declined Rate of Blood Glucose Levels, 30 min (sucrose-loaded mice; 1.0 mpk)","Declined Rate of Blood Glucose Levels, 60 min (sucrose-loaded mice; 1.0 mpk)",Declined Rate of AUC (sucrose-loaded mice; 1.0 mpk),further results
550 nM,"OCC1C(O)C(O)C[S+]1CC(O)C1OC(c2ccccc2F)OCC1O [19n, 1,4-Dideoxy-1,4-{(R)-[5-deoxy-1,3-O-(o-fluorophenylmethylene)-D-arabinitol-5-yl]episulfoniumylidene}-D-arabinitol chloride]",420 nM,,,,,,,,,,,,,,,,IC50 (rat intestinal sucrase [2]; literature value): 840 nM; IC50 (rat intestinal maltase [3]; literature value): 400 nM
,"OC[C@@H]1[C@@H](O)[C@H](O)C[Se@+]1C[C@@H](O)[C@H]1OC(c2cccc(Cl)c2Cl)OC[C@H]1O.[Cl-] (stereo partly drawn) [20a, (1S,2R,3S,4S)-1-((2S)-2-((4S,5R)-2-(2,3-Dichlorophenyl)-5-hydroxy-1,3-dioxan-4-yl)-2-hydroxyethyl)-3,4-dihydroxy-2-(hydroxymethyl)tetrahydro-1H-selenophen-1-ium chloride]",330 ± 150 nM,934 nM,fully competitive,fully competitive,0.94 µg/mL,190 ± 20 nM,> 500000 nM,> 500000 nM,non-toxic,> 500000 nM,,,,,,,
,"OC[C@@H]1[C@@H](O)[C@H](O)C[Se@+]1C[C@@H](O)[C@H]1OC(c2cc(Cl)ccc2Cl)OC[C@H]1O.[Cl-] (stereo partly drawn) [20c, (1S,2R,3S,4S)-1-((2S)-2-((4S,5R)-2-(2,5-Dichlorophenyl)-5-hydroxy-1,3-dioxan-4-yl)-2-hydroxyethyl)-3,4-dihydroxy-2-(hydroxymethyl)tetrahydro-1H-selenophen-1-ium chloride]",140 ± 50 nM,381 nM,fully competitive,fully competitive,0.67 µg/mL,50 ± 20 nM,> 500000 nM,> 500000 nM,low toxicity; also recorded: non-toxic,> 500000 nM,43.5%,40.2%,40.0%,40.3%,38.2%,34.00%,"Declined Rate of Blood Glucose Levels, 15 min (maltose-loaded mice): 45.8%; Declined Rate of Blood Glucose Levels, 30 min (maltose-loaded mice): 47.4%; Declined Rate of Blood Glucose Levels, 15 min (sucrose-loaded mice; 10.0 mpk, 10 mg/kg): 48.6%; Declined Rate of Blood Glucose Levels, 30 min (sucrose-loaded mice; 10.0 mpk, 10 mg/kg): 52.8%; Declined Rate of Blood Glucose Levels, 60 min (sucrose-loaded mice; 10.0 mpk, 10 mg/kg): 48.1%; Declined Rate of AUC (sucrose-loaded mice; 10.0 mpk, 10 mg/kg): 46.4%; fold greater potency than acarbose, sucrase (rat intestinal sucrase [1]; IC50 ratio vs acarbose): 44 fold; fold greater potency than acarbose, maltase (rat intestinal maltase [4]; IC50 ratio vs acarbose): 25 fold"
2800 ± 500 nM,OC[C@@H]1[C@@H](O)[C@H](O)C[S@@+]1C[C@@H](O)[C@@H](O)[C@H](O)[C@@H](O)CO [neoponkoranol],7300 ± 1500 nM,,,,,,,,,,19.4%,21.5%,33.5%,36.4%,27.1%,27.1%,"Declined Rate of Blood Glucose Levels, 15 min (maltose-loaded mice; 1 mg/kg): 42.3%; Declined Rate of Blood Glucose Levels, 30 min (maltose-loaded mice; 1 mg/kg): 33.9%; Declined Rate of Blood Glucose Levels, 15 min (sucrose-loaded mice; 10.0 mpk): 42.8%; Declined Rate of Blood Glucose Levels, 30 min (sucrose-loaded mice; 10.0 mpk): 49.5%; Declined Rate of Blood Glucose Levels, 60 min (sucrose-loaded mice; 10.0 mpk): 43.5%; Declined Rate of AUC (sucrose-loaded mice; 10.0 mpk): 39.4%; IC50 (rat intestinal sucrase [2]; literature value ^[a]): 2300 nM; IC50 (rat intestinal maltase [3]; literature value ^[a]): 6900 nM"

# — article PMC12250965, “Design and Synthesis of Sulfonium and Selenonium Derivatives Bearing 3′,5′-O-Benzylidene Acetal Side Chain Structure as Potent α-Glucosidase Inhibitors” (Molecules, 2025)
